Test results taken from ChEMBL document CHEMBL5038667, “Discovery of an Amino Acid-Modified Near-Infrared Aza-BODIPY Photosensitizer as an Immune Initiator for Potent Photodynamic Therapy in Melanoma” (J Med Chem, 2022).
≈ marks a conversion by molar mass, not a printed value. Calls of active or inactive are those of the source. No cut-off for these calls is given here.

What was measured:
[1] = Aqueous solubility in PBS; format: physicochemical; details: buffer
[2] = Phototoxicity against human HeLa cells assessed as reduction in cell viability incubated for 16 hrs followed by irradiated with 54 J/cm^2 of light dose and further incubated for 24 hrs by CCK-8 assay; format: toxicity, cell-based; details: light or radiation study
[3] = Phototoxicity against human A-375 cells assessed as reduction in cell viability incubated for 16 hrs followed by irradiated with 54 J/cm^2 of light dose and further incubated for 24 hrs by CCK-8 assay; format: toxicity, cell-based; details: A-375, light or radiation study
[4] = Lipophilicity, logP of compound; format: physicochemical; details: octanol/water
[5] = tested on: B16-F10; test: Dark toxicity against mouse B16-F10 cells assessed as reduction in cell viability incubated for 16 hrs by CCK-8 assay; format: cell-based; details: B16-F10, 16 h
[6] = Phototoxicity against mouse B16-F10 cells assessed as reduction in cell viability incubated for 16 hrs followed by irradiated with 54 J/cm^2 of light dose and further incubated for 24 hrs by CCK-8 assay; format: toxicity, cell-based; details: B16-F10, light or radiation study
[7] = tested on: A-375; test: Dark toxicity against human A-375 cells assessed as reduction in cell viability incubated for 16 hrs by CCK-8 assay; format: functional, cell-based; details: A-375, 16 h
[8] = tested on: HeLa; test: Dark toxicity against human HeLa cells assessed as reduction in cell viability incubated for 16 hrs by CCK-8 assay; format: functional, cell-based
[9] = tested on: B16-F10; test: Antitumor activity against mouse B16-F10 cells implanted in C57BL/6 mouse assessed as tumor regrowth at 2 mg/kg, iv upto after 6 days irradiated with 60 J/cm^2 laser light by IVIS imaging analysis; format: functional, organism-based; details: time 6.0 day
[10] = Toxicity in C57BL/6 mouse harboring mouse B16-F10 cells assessed as change in body weight at 2 mg/kg, iv irradiated with 60 J/cm^2 laser light measured upto 14 days; format: organism-based; details: in vivo, 336 h, time <=14 day
[11] = tested on: B16-F10; test: Antitumor activity against mouse B16-F10 cells implanted in C57BL/6 mouse assessed as inhibition of tumor growth at 2 mg/kg, iv irradiated with 60 J/cm^2 laser light by IVIS imaging analysis measured upto 48 hrs; format: functional, organism-based; details: time hrs <=48
[12] = tested on: B16-F10; test: Antitumor activity against mouse B16-F10 cells implanted in C57BL/6 mouse assessed as tumor destruction at 2 mg/kg, iv irradiated with 60 J/cm^2 laser light measured after 14 days by hematoxylin and eosin based microscopic analysis; format: functional, organism-based; details: time 14.0 day

COc1ccc(C2=[N+]3C(=Nc4c(-c5ccccc5)c5c(n4[B-]3(F)F)-c3ccc(OCC(=O)N[C@@H](CCC(=O)O)C(=O)O)cc3CC5)C(c3ccccc3)=C2I)cc1
solubility [1]: 158 µM (≈ 139 µg/mL) | IC50 [2]: 78 nM | IC50 [3]: 166 nM | logP [4]: -0.74 | IC50 [5]: > 250000 nM | IC50 [6]: 159 nM | IC50 [7]: > 250000 nM | IC50 [8]: > 250000 nM

COc1ccc2c(c1)CCc1c(-c3ccccc3)c3n(c1-2)[B-](F)(F)[N+]1=C(c2ccc(OCC(=O)O)cc2)C(I)=C(c2ccccc2)C1=N3
solubility [1]: 21.8 µM (≈ 16.4 µg/mL) | IC50 [2]: 274 nM | IC50 [3]: 320 nM | logP [4]: 0.92 | IC50 [5]: > 50000 nM | IC50 [6]: 346 nM | IC50 [7]: > 50000 nM | IC50 [8]: > 50000 nM

COc1ccc(C2=[N+]3C(=Nc4c(-c5ccccc5)c5c(n4[B-]3(F)F)-c3ccc(OCC(=O)O)cc3CC5)C(c3ccccc3)=C2I)cc1
solubility [1]: 28.4 µM (≈ 21.4 µg/mL) | IC50 [2]: 56 nM | IC50 [3]: 142 nM | logP [4]: 0.94 | IC50 [5]: > 50000 nM | IC50 [6]: 104 nM | IC50 [7]: > 50000 nM | IC50 [8]: > 50000 nM

COc1ccc(C2=[N+]3C(=Nc4c(-c5ccccc5)cc(-c5ccc(OC)cc5)n4[B-]3(F)F)C(c3ccccc3)=C2I)cc1
solubility [1]: < 1 µM | IC50 [2]: 76 nM | IC50 [3]: 254 nM | logP [4]: > 3 | IC50 [5]: > 50000 nM | IC50 [6]: 276 nM | Activity [9]: Active | Activity [10]: Non-Toxic | Activity [11]: Active | IC50 [7]: > 50000 nM | IC50 [8]: > 50000 nM | Activity [12]: Active

C=Cc1c(C)c2cc3nc(c(CC(=O)O)c4[nH]c(cc5nc(cc1[nH]2)C(C)=C5CC)c(C)c4C(=O)O)[C@@H](CCC(=O)O)[C@@H]3C [CHLORIN E6]
Activity [10]: Non-Toxic | Activity [11]: inactive

COc1ccc(C2=[N+]3C(=Nc4c(-c5ccccc5)c5c(n4[B-]3(F)F)-c3ccc(OC)cc3CC5)C(c3ccccc3)=C2I)cc1
solubility [1]: < 1 µM | logP [4]: > 3

COc1ccc2c(c1)CCc1c(-c3ccccc3)c3n(c1-2)[B-](F)(F)[N+]1=C(c2ccc(OCC(=O)N[C@@H](CC(=O)O)C(=O)O)cc2)C(I)=C(c2ccccc2)C1=N3
solubility [1]: 115 µM (≈ 100 µg/mL) | IC50 [2]: 55 nM | IC50 [3]: 148 nM | logP [4]: -0.73 | IC50 [5]: > 250000 nM | IC50 [6]: 126 nM | IC50 [7]: > 250000 nM | IC50 [8]: > 250000 nM

COc1ccc2c(c1)CCc1c(-c3ccccc3)c3n(c1-2)[B-](F)(F)[N+]1=C(c2ccc(OCC(=O)N[C@@H](CCC(=O)O)C(=O)O)cc2)C(I)=C(c2ccccc2)C1=N3
solubility [1]: 110 µM (≈ 96.7 µg/mL) | IC50 [2]: 119 nM | IC50 [3]: 284 nM | logP [4]: -0.71 | IC50 [5]: > 250000 nM | IC50 [6]: 212 nM | IC50 [7]: > 250000 nM | IC50 [8]: > 250000 nM
